{"source": "paper PMC2929374", "about": "(Chemmedchem, 2009)", "note": "pIC50, pKi: −log10 of the molar value.", "data": [{"target": "T1, T. brucei TryR (trypanothione reductase; TyrR) (Trypanosoma brucei, UniProt P39051)", "T1 sequence (P39051 whole entry)": "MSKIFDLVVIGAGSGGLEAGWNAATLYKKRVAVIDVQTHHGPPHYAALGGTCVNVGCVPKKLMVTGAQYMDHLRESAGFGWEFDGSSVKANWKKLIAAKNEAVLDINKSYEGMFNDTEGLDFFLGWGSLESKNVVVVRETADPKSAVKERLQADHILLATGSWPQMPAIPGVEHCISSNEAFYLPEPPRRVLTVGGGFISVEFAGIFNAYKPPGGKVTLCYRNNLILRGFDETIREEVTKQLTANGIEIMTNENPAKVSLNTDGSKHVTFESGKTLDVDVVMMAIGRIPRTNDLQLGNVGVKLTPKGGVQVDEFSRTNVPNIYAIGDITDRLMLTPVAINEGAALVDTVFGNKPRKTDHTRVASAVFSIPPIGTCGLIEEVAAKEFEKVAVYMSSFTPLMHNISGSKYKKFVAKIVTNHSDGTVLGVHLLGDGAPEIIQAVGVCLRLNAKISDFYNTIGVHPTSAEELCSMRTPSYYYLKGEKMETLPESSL", "assay": "DTNB-coupled TryR assay, absorbance, 384-well", "format": "biochemical", "details": "not given", "values": [{"compound": "c1ccc(-c2ccc(C3(N4CCCCC4)CCCCC3)cc2)cc1", "note": "[compound 4]", "pIC50": "< 4.00"}, {"compound": "c1ccc2oc(C3(N4CCCCC4)CCCCC3)cc2c1", "note": "[compound 5]", "pIC50": 5.36}, {"compound": "c1ccc2c(C3(N4CCCCC4)CCCCC3)cccc2c1", "note": "[compound 6]", "pIC50": "< 4.00"}, {"compound": "c1ccc2cc(C3(N4CCCCC4)CCCCC3)ccc2c1", "note": "[compound 7]", "pIC50": 4.55}, {"compound": "c1ccc2sc(C3(N4CCCCC4)CCCCC3)nc2c1", "note": "[compound 9]", "pIC50": "< 4.00"}, {"compound": "Brc1ccc2sc(C3(N4CCCCC4)CCCCC3)cc2c1", "note": "[compound 12, 1-(1-(5-Bromo-benzo[b]thiophen-2-yl)cyclohexyl)piperidine]", "pIC50": "< 4.00"}, {"compound": "c1ccc2sc(C3(N4CCOCC4)CCCCC3)cc2c1", "note": "[compound 15]", "pIC50": 4.96}, {"compound": "CN1CCN(C2(c3cc4ccccc4s3)CCCCC2)CC1", "note": "[compound 16]", "pIC50": 5.00}, {"compound": "c1ccc2sc(C3(N4CCCCC4)CCCC3)cc2c1", "note": "[compound 17]", "pIC50": 4.96}, {"compound": "CN1CCC(c2cc3ccccc3s2)(N2CCCCC2)CC1", "note": "[compound 18]", "pIC50": 6.03}, {"compound": "CC(C)(c1cc2ccccc2s1)N1CCCCC1", "note": "[compound 19]", "pIC50": 4.82}, {"compound": "O=C(c1cc2ccccc2s1)C1(N2CCCCC2)CCCCC1", "note": "[compound 24, Benzo[b]thiophen-2-yl(1-(piperidin-1-yl)cyclohexyl)methanone]", "pIC50": "< 4.00"}, {"compound": "OC(c1ccccc1)(c1ccccc1)C1(N2CCCCC2)CCCCC1", "note": "[compound 25, Diphenyl(1-(piperidin-1-yl)cyclohexyl)methanol]", "pIC50": "< 4.00"}, {"compound": "CC(C)(C)OC(=O)N1CCC(c2cc3ccccc3s2)(N2CCCCC2)CC1", "note": "[compound 27, tert-Butyl 4′-(benzo[b]thiophen-2-yl)-1,4′-bipiperidine-1′-carboxylate]", "pIC50": "< 4.00"}, {"compound": "c1ccc2sc(C3(N4CCCCC4)CCNCC3)cc2c1", "note": "[compound 28, 4′-(Benzo[b]thiophen-2-yl)-[1,4′]bipiperidine]", "pIC50": 5.29}, {"compound": "CC(=O)N1CCC(c2cc3ccccc3s2)(N2CCCCC2)CC1", "note": "[compound 29]", "pIC50": 5.18}, {"compound": "O=C(c1ccccc1)N1CCC(c2cc3ccccc3s2)(N2CCCCC2)CC1", "note": "[compound 30, (4′-(Benzo[b]thiophen-2-yl)-1,4′-bipiperidinyl-1′-yl)(phenyl)methanone]", "pIC50": 4.89}, {"compound": "O=C(Cc1ccccc1)N1CCC(c2cc3ccccc3s2)(N2CCCCC2)CC1", "note": "[compound 31, 1-(4′-(Benzo[b]thiophen-2-yl)-1,4′-bipiperidinyl-1′-yl)-2-phenylethanone]", "pIC50": 4.92}, {"compound": "CN(C)CC(=O)N1CCC(c2cc3ccccc3s2)(N2CCCCC2)CC1", "note": "[compound 32, 1-(4′-(Benzo[b]thiophen-2-yl)-1,4′-bipiperidinyl-1′-yl)-2-(dimethylamino)ethanone]", "pIC50": 5.59}, {"compound": "c1ccc2sc(C3(N4CCCCC4)CCN(CCN4CCOCC4)CC3)cc2c1", "note": "[compound 33, 4-(2-(4′-(Benzo[b]thiophen-2-yl)-1,4′-bipiperidin-1′-yl)ethyl)morpholine]", "pIC50": 5.36}, {"compound": "c1ccc(CN2CCC(c3cc4ccccc4s3)(N3CCCCC3)CC2)cc1", "note": "[compound 34, 4′-(Benzo[b]thiophen-2-yl)-1′-benzyl-1,4′-bipiperidine]", "pIC50": 4.72}, {"compound": "CN(C)CCN1CCC(c2cc3ccccc3s2)(N2CCCCC2)CC1", "note": "[compound 35, 2-(4′-(Benzo[b]thiophen-2-yl)-1,4′-bipiperidinyl-1′-yl)-N,N-dimethylethanamine]", "pIC50": "< 4.00"}]}, {"target": "T1, T. brucei TryR (trypanothione reductase; TyrR)", "assay": "DTNB-coupled TryR assay, absorbance, 384-well", "format": "biochemical", "details": "read-out: TryR IC50; pH 7.4, 40 mM HEPES, 1 mM EDTA, 6 μM trypanothione, 50 μM DTNB, 150 μM NADPH, room temperature", "values": [{"compound": "c1ccc2sc(C3(N4CCCCC4)CCCCC3)cc2c1", "note": "[compound 1, 1-(1-(Benzo[b]thiophen-2-yl)cyclohexyl)piperidine]", "pIC50": 5.48}, {"compound": "c1csc(C2(N3CCCCC3)CCCCC2)c1", "note": "[compound 3]", "pIC50": "< 4.00"}, {"compound": "c1ccc2sc(C3(N4CCCC4)CCCCC3)cc2c1", "note": "[compound 13]", "pIC50": 6.04}, {"compound": "CCN(CC)C1(c2cc3ccccc3s2)CCCCC1", "note": "[compound 14]", "pIC50": 5.30}]}, {"target": "T1, T. brucei TryR (trypanothione reductase; TyrR)", "assay": "DTNB-coupled kinetics, global fit", "format": "biochemical", "details": "not given", "values": [{"compound": "c1ccc2oc(C3(N4CCCCC4)CCCCC3)cc2c1", "note": "[compound 5]", "pKi": 5.84}]}]}
